# Where two headings read alike, the source gives them in different places.
# Columns and labels:
# [1] = tested on: MDA-MB-231 breast cancer cell; assay: MTT cell viability assay, MDA-MB-231 breast cancer cell; format: cell-based, human; conditions: for IC50: Homo sapiens; for times more potent than curcumin (IC50): MDA-MB-231, 72 h treatment, curcumin IC50 16.23 μM
# Description: (§1) Cell viability was evaluated by measuring the reduction in MTT to yield blue formazan. Cells were cultured in 96-well plates, allowed to attach overnight, and then treated with compounds. After treatment, MTT solution (1 mg/ml) was added to each well, and plates were incubated for another 4 h.
# PC3 prostate cancer cell = assay: MTT cell viability assay, PC3 prostate cancer cell; format: cell-based
# Description: as §1, with “h. Medium were removed, blue formazan was dissolved in DMSO, and the absorbance was read at 570 nm^20.” for “h.”
# [2] = tested on: HCT-116 colon cancer cell; assay: MTT cell viability assay, HCT-116 colon cancer cell; format: cell-based; conditions: Homo sapiens
# Description: as §1, with “h. Medium were removed, blue formazan was dissolved in DMSO, and the absorbance was read at 570 nm^20.” for “h.”
# [3] = MDA-MB-231, 24 h, MDA-MB-231, treated 24 hours, read-out: IC50 24 hours
# [4] = MDA-MB-231, 48 h, MDA-MB-231, treated 48 hours, read-out: IC50 48 hours
# [5] = MDA-MB-231, 72 h, MDA-MB-231, treated 72 hours, read-out: IC50 72 hours
# [6] = PC-3, treated 24 hours, read-out: IC50 24 hours
# [7] = PC-3, treated 48 hours, read-out: IC50 48 hours
# [8] = PC-3, treated 72 hours, read-out: IC50 72 hours
# [9] = HCT-116, treated 24 hours, read-out: IC50 24 hours
# [10] = HCT-116, treated 48 hours, read-out: IC50 48 hours
# [11] = HCT-116, treated 72 hours, read-out: IC50 72 hours
SMILES,"IC50 [1, 3]","IC50 [1, 4]","IC50 [1, 5]",IC50 (PC3 prostate cancer cell; [6]),IC50 (PC3 prostate cancer cell; [7]),IC50 (PC3 prostate cancer cell; [8]),melting point,"IC50 [2, 9]","IC50 [2, 10]","IC50 [2, 11]",times more potent than curcumin (IC50) [1]
"COc1cc(/C=C/C(O)=C/C(=O)/C=C/c2ccc(OC(=O)C(C)(CO)CO)c(OC)c2)ccc1O [Compound 21b, 4-((1E,4Z,6E)-5-Hydroxy-7-(4-hydroxy-3-methoxyphenyl)-3-oxohepta-1,4,6-trien-1-yl)-2 methoxyphenyl 3-hydroxy-2-(hydroxymethyl)-2-methylpropanoate]",13.2 ± 1.2 µM,9.97 ± 1.12 µM,5.94 µM,24.6 ± 0.83 µM,26.8 ± 0.74 µM,17.4 ± 1.37 µM,104 to 105 °C,35.6 ± 2.5 µM,20.4 ± 0.61 µM,15.5 ± 0.16 µM,–
"CCC(CO)(CO)C(=O)Oc1ccc(/C=C/C(=O)/C=C(O)/C=C/c2ccc(O)c(OC)c2)cc1OC [Compound 22b, 4-((1E,4Z,6E)-5-Hydroxy-7-(4-hydroxy-3-methoxyphenyl)-3-oxohepta-1,4,6-trien-1-yl)-2-methoxyphenyl 2,2-bis(hydroxymethyl)butanoate]",14.6 ± 2.42 µM,7.55 ± 0.86 µM,4.66 µM,13.8 ± 1.48 µM,14.4 ± 0.82 µM,12.5 ± 0.1 µM,82 to 83 °C,21.2 ± 2.48 µM,12.4 ± 0.16 µM,11.4 ± 1.05 µM,–
"CC(CO)(CO)C(=O)Oc1ccc(/C=C/C(=O)/C=C(O)/C=C/c2ccc(OC(=O)C(C)(CO)CO)cc2)cc1 [Compound 23a, ((1E,3Z,6E)-3-Hydroxy-5-oxohepta-1,3,6-triene-1,7-diyl)bis(4,1-phenylene) bis(3-hydroxy-2-(hydroxymethyl)-2-methylpropanoate)]",26.7 ± 1.85 µM,7.82 ± 0.56 µM,6.74 µM,8.46 ± 0.64 µM,8.77 ± 0.8 µM,5.59 ± 0.2 µM,192 to 194 °C,57.4 ± 12.2 µM,8.64 ± 0.18 µM,4.1 ± 0.06 µM,–
"CC(CO)(CO)C(=O)Oc1ccc(/C=C/C(=O)/C=C(O)/C=C/c2ccc(O)cc2)cc1 [Compound 23b, 4-((1E,4Z,6E)-5-hydroxy-7-(4-hydroxyphenyl)-3-oxohept-1,4,6-trien-1-yl)phenyl 3-hydroxy-2-(hydroxymethyl)-2-methylpropanoate]",19.5 ± 1.82 µM,5.27 ± 0.57 µM,1.33 µM,20.1 ± 2.62 µM,11 ± 0.44 µM,5.22 ± 0.27 µM,206 to 208 °C,71.9 ± 7.87 µM,11.3 ± 0.72 µM,4.78 ± 0.66 µM,about 12 times
"COc1ccc(/C=C/C(=O)CC(=O)/C=C/c2ccc(OC)c(OC(=O)C(C)(CO)CO)c2)cc1OC(=O)C(C)(CO)CO [Compound 24a, ((1E,6E)-3,5-Dioxohepta-1,6-diene-1,7-diyl)bis(2-methoxy-5,1-phenylene) bis(3-hydroxy-2-(hydroxymethyl)-2-methylpropanoate)]",9.22 ± 2.24 µM,5.11 ± 0.96 µM,4.61 µM,11.9 ± 1.4 µM,6.43 ± 0.26 µM,4.74 ± 0.04 µM,194 to 196 °C,11.4 ± 1.11 µM,5.33 ± 0.29 µM,2.79 ± 0.15 µM,about 3.5 times
"COc1ccc(/C=C/C(=O)CC(=O)/C=C/c2ccc(OC)c(OC(=O)C(C)(CO)CO)c2)cc1O [Compound 24b, 5-((1E,6E)-7-(3-Hydroxy-4-methoxyphenyl)-3,5-dioxohepta-1,6-dien-1-yl)-2-methoxyphenyl 3-hydroxy-2-(hydroxymethyl)-2-methylpropanoate]",7.69 ± 0.82 µM,1.99 ± 0.99 µM,2.29 µM,8.37 ± 0.81 µM,3.75 ± 0.18 µM,2.32 ± 0.05 µM,184 to 186 °C,7.57 ± 1.02 µM,3.84 ± 0.41 µM,1.95 ± 0.15 µM,–
"CCOc1cc(/C=C/C(=O)/C=C(O)/C=C/c2ccc(OC(=O)C(C)(CO)CO)c(OCC)c2)ccc1OC(=O)C(C)(CO)CO [Compound 26, ((1E,3Z,6E)-3-hydroxy-5-oxohepta-1,3,6-triene-1,7-diyl)bis(2-ethoxy-4,1-phenylene) bis(3-hydroxy-2-(hydroxymethyl)-2-methylpropanoate)]",18.43 ± 0.15 µM,8.85 ± 0.66 µM,6.58 ± 0.81 µM,9.38 ± 0.01 µM,9.53 ± 0.36 µM,5.36 ± 0.07 µM,153 to 155 °C,8.33 ± 0.39 µM,4.22 ± 0.05 µM,3.79 ± 0.1 µM,–
"CCOc1cc(/C=C/C(=O)/C=C(O)/C=C/c2ccc(OC(=O)C(CC)(CO)CO)c(OCC)c2)ccc1OC(=O)C(CC)(CO)CO [Compound 27, ((1E,3Z,6E)-3-hydroxy-5-oxohepta-1,3,6-triene-1,7-diyl)bis(2-ethoxy-4,1-phenylene) bis(2,2-bis(hydroxymethyl)butanoate)]",8.04 ± 0.17 µM,7.43 ± 1.36 µM,5.49 ± 0.52 µM,8.18 ± 1.89 µM,4.46 ± 0.15 µM,3.06 ± 0.29 µM,161 to 162 °C,3.79 ± 0.03 µM,3.18 ± 0.26 µM,2.97 ± 0.13 µM,–

# Reference: patent US10787413B2, “Derivatives of curcuminoids and use thereof as an anticancer agent” (CHINA MEDICAL UNIVERSITY, priority 2016, dated 2020)
